Reference: patent publication US20050234100A1, “Insulin resistance as new action of loperamide” (Yu Sheng Pharmaceutical Co., Ltd., priority 2004, published 2005)

Legend:
[1] = system: TNF-α induced insulin resistant C2C12 myoblasts; assay: insulin-stimulated glucose uptake in TNF-α induced insulin resistant C2C12 myoblasts; format: cell-based, mouse; settings: for glucose uptake stimulated by insulin in TNF-α treated C2C12 myoblasts, antagonist alone: without loperamide
Protocol: (§1) The C2C12 cells, obtained from Culture Collection and Research Center (CCRC 60083) of the Food Industry Institute (Hsin-Chiu City, Taiwan) were plated at 5×10^4 cells/dish in 35-mm diameter culture dishes in Dulbecco's modified Eagle's medium (DMEM) (GIBCO BRL, Gaithersburg, Md.) supplemented with 10% fetal bovine serum (FBS) (GIBCO BRL) and 1% antibiotic solution (penicillin 10,000 U/ml, streptomycin 10 mg/ml, amphotericin B 25 μg/ml) and were grown to 80% confluence at 37° C. in humidified atmosphere containing 5% CO2. Myoblast differentiation was induced with DMEM supplemented with 5% horse serum, L-glutamine, and penicillin/streptomycin for 72 h. Differentiated myotubes were starved for 5 h in serum-free DMEM before treatment as described previously (Sheriff et al., 1992).
Cultured C2C12 myoblasts (5×10^6) were incubated with loperamide at desired concentration or the same volume of vehicle in a cultivation condition oxygenated with a mixture of 95% O2 and 5% CO2 at 37° C. temperature for 3 days. Then, tumor necrosis factor-α (TNF-α) at concentration of 10 ng/ml was added. One hour later, cells were flushed down with 0.05% trypsin and put under centrifugal force at 13,000 rpm for 5 minutes, and clear liquid on top was then thrown away. Insulin ([…]) was used to simulate glucose uptake into cells using 2-[1-^14C]-Deoxy-D-Glucose (2-DG) (the final concentration of isotope was 0.25 μCi/ml) as indicator for 5-min incubation. The reaction was terminated in ice-bath. Then, C2C12 myoblasts were washed with buffer liquid three times. Finally, cells were lysed with 1 M NaOH and put into scintillation vial. The 2-DG specific uptake of cells was measured as indicated above.
The effect of loeramide on insulin resistance was further investigated in C2C12 myoblasts using TNF-α induced insulin resistance as described previously (Ruan et al., 2002; Mikael et al., 2002). Incubation with loperamide for 3 days at desired concentration, C2C12 myoblasts were treated with TNF-α (10 ng/ml) for one hour. Then, insulin was used to stimulate glucose uptake using 2-DG as indicator following the above method.

[2] = system: fructose-rich chow-fed Wistar rats (insulin resistance); assay: intraperitoneal glucose tolerance test (IGTT) in fructose-induced insulin resistant rats; format: in vivo
Protocol: (§2) Animals were food-restricted and given only water to drink for overnight before the experiment. On the morning of examination, the basal blood sample (0.1 ml) drawn from the tail veins of these rats were regarded as 0 min samples. Then, each animal was immediately received an intraperitoneal injection of glucose at 1 g/kg body wt to induce the glucose tolerance test (IGTT). Blood samples from the tail vein were drawn at 5, 10, 20, 30, 60, 90, 120 min after the glucose feeding for measurement of plasma levels of glucose and insulin. Immediately after the completion of the IGTT, all animals received 2 ml of sterile saline subcutaneously to compensate for plasma loss. The obtained whole blood was thoroughly mixed with 10 IU heparin and centrifuged at 13,000×g to separate the plasma. Concentration of plasma glucose was measured by the glucose oxidase method via an analyzer (Quik-Lab, Ames, Miles Inc., Elkhart, Ind., USA) with samples run in duplicate. Enzyme-linked immunosorbent assay was carried out to measure plasma insulin using the commercial kit (Penisula Lab. Inc., Belmont, Calif., USA). Glucose-insulin index was calculated as the product of the glucose and insulin areas under the curve (AUC) as described previously (Kara et al., 2000). In order to evaluate whether loperamide could improve insulin resistance, four different doses of loperamide (2 ? 6 ? 12 ? 18 μg/kg) were injected into abdomen of each animal 30 minutes before the injection of glucose.
After 2 weeks on standard chow (Purina Mills, Inc.), half of the Wistar rats were randomly assigned to receive the fructose-rich chow (Teklad, Madison, Wis.) containing 60% fructose for 4 additional weeks to induce insulin resistance that was confirmed by the loss of tolbutamide action. The other rats still received standard chow during the 4-week period.
(§3) The blood sample was centrifuged to obtain plasma. Then, 10 μl of plasma was mixed with 1.0 ml of Glucose Kit Reagent (Biosystems S.A., Barcelona, Spain) at 37° C. for 10 minutes. The glucose concentration was measured in duplicate using Quik-lab analyzer (Ames, Miles Inc., Elkhart, Ind., USA) and expressed to the value of mg/dl. Results of plasma glucose lowering activity were calculated as percentage decrease of the initial value according to the formula: (Gi−Gt)/Gi×100% where Gi was the initial glucose concentration and Gt was the plasma glucose concentration after treatment of loperamide or same volume of vehicle.
(§4) Enzyme-linked immunosorbent assay (ELISA) was carried out to measure plasma insulin using the commercial kit (Penisula Lab. Inc., Belmont, Calif., USA). The measurement principle utilized the polyclonal antibodies in rabbit to directly identify the carboxyl-terminal of human insulin. Biotinylated peptide would compete with test subject the integration position with antibodies. After washing away the biotinylated peptides that was not integrated with antibodies, streptavidin-conjugated Horseradish Peroxidase (SA-HRP) was used to react with immobilized primary antibody/biotinylated peptide complex. Then, TMB (3,3′,5,5′-Tetramethyl Benzidine Dihydrochloride) is added to react with HRP and then yellow color was shown. The lightness or darkness of color was determined by the amount of biotinylated peptide integrated with antibodies. […] The standard curve was ploted according to the amounts of light absorption of standard subjects at 450 nm. Then through log/logit, the insulin concentration was calculated using MicroReader™ 4 Plus.
Using glucose-insulin index (Kara et al., 2000) as indicator, effect of loperamide on insulin resistance was investigated in fructose-fed rats. The control group was treated with the same volume of saline, while test groups were injected loperamide at four doses (2 ? 6 ? 12 ? 18 μg/kg) into abdomens. […]

C2C12 myoblasts = assay: 2-DG glucose uptake in C2C12 myoblasts; format: cell-based, mouse
Protocol: as §1
Glucose uptake was determined using 2-[^14C]-deoxy-D-glucose (2-DG) (New England Nuclear, Boston, Mass.). After 5 h of serum starvation, cells were incubated with or without pharmacological inhibitors at indicated concentrations for 30 min at 37° C. Then, the cells were incubated with loperamide at indicated concentrations at 37° C. for another 30 min under continuous shaking at 40 cycles/min. The cells were further incubated with 2-DG (1 μCi/ml) for 5 min at 37° C. Uptake was terminated by aspiration of the solution. Cells were then washed three times, and radioactivity associated with the cells was determined by cell lysis in 1 M NaOH, and the aliquots were neutralized to be estimated in scintillation counter. 2-DG uptake was expressed as the percentage of the basal 2-DG uptake that was taken as 100% from samples incubated with DMEM only. Nonspecific uptake was obtained by parallel determinations in the presence of 20 μmol/l cytochalasin B (Sigma, St. Louis, Mo., USA).

[3] = system: Zucker-diabetic fatty rats; assay: glucose challenge test in Zucker-diabetic fatty rats; format: in vivo; settings: loperamide 2, 6, 18 μg/kg
Protocol: as §2, §3, §4
In order to know similar action of loperamide is also effective in genetic animal, the present study employed the Zucker-diabetic fatty rats to investigate IGTT in addition. Also, control group was treated with the same volume of vehicle (saline). The only difference is that glucose (0.5 g/kg) was given by intravenous injection at 30 minutes later of treatment.

[4] = system: STZ-induced type-I diabetic rats; settings: intravenous injection; cited from earlier work
[5] = TNF-α treated C2C12 myoblasts, antagonist dose dependence

CN(C)C(=O)C(CCN1CCC(O)(c2ccc(Cl)cc2)CC1)(c1ccccc1)c1ccccc1 [loperamide]
glucose uptake in TNF-α induced insulin resistant C2C12 myoblasts ([1]; loperamide 10 μM (maximal concentration)): reversed the glucose uptake in TNF-α induced insulin resistant C2C12 myoblasts to the level near normal control
glucose uptake stimulated by insulin in TNF-α treated C2C12 myoblasts ([1]; loperamide incubation 3 days, TNF-α 10 ng/ml 1 hour, dose dependence): reversed the glucose uptake stimulated by insulin in TNF-α treated C2C12 myoblasts in a dose-dependent manner
raise of plasma glucose during IGTT ([2]; fructose-fed rats, loperamide 2, 6, 12, 18 μg/kg into abdomen, 60 minutes after injection (30 minutes after 1 g/kg glucose i.p.), vs control group): reduce the raise of plasma glucose significantly
plasma insulin levels and incremental area under the insulin curve during IGTT ([2]; fructose-fed rats, loperamide 2-18 μg/kg into abdomen): lowered
total AUC for the glucose response during IGTT ([2]; fructose-fed rats, loperamide 2-18 μg/kg into abdomen, vs vehicle-treated control): markedly lower than that from vehicle-treated control
glucose-insulin index during IGTT ([2]; fructose-rich chow-fed rats, loperamide 2-18 μg/kg into abdomen, index = product of glucose and insulin AUC): reduced the value of glucose-insulin index
incubation time to maximal plateau of 2-DG uptake (C2C12 myoblasts; C2C12 myoblasts about 10^6 cells, 37° C.): about 25 min
2-DG uptake, concentration dependence (C2C12 myoblasts; loperamide 10 nM to 10 μM, 30 min incubation): increase of 2-DG uptake in a concentration-dependent manner
glucose uptake relative to control (C2C12 myoblasts; loperamide 10 μM (maximal concentration), N=8): about 1.3 times of the control
2-DG uptake (C2C12 myoblasts; loperamide 10 μM, no antagonist, 8 experiments): 204.3±4.7 pmol/mg protein/5 min
AUC of plasma glucose [3]: inhibited by loperamide but at a higher dosing
glucose-insulin index [3]: dose-dependently decreased
total area (AUC) of plasma insulin [3]: reduced by loperamide in a dose-dependent manner
plasma insulin after glucose challenge ([3]; 5 min after glucose injection): reduction of plasma insulin by loperamide was obtained in a dose-dependent fashion
plasma glucose after glucose challenge ([3]; 35 min after treatment (5 min after 0.5 g/kg glucose i.v.)): lowering of plasma glucose
plasma glucose [4]: produced plasma glucose lowering effect

C=CCN1CC[C@]23c4c5ccc(O)c4O[C@H]2C(=O)CC[C@@]3(O)[C@H]1C5 [naloxone]
effect of antagonist on action of loperamide (10 μM) [1, 5]: inhibited the effect of loperamide in a dose-dependent manner
effect of antagonist on action of loperamide (10 μM) ([1]; antagonist at 1 μM): eliminated the action of loperamide
glucose uptake stimulated by insulin in TNF-α treated C2C12 myoblasts, antagonist alone ([1]; antagonist at 1 μM): did not modify the glucose uptake
action of loperamide to lower glucose-insulin index in the presence of naloxone ([2]; naloxone 1 mg/kg 1 hour before loperamide 18 μg/kg, fructose-rich chow-fed rats): reversed to that near to the value in fructose-rich chow-fed rats received vehicle treatment
glucose-insulin index, naloxone alone ([2]; naloxone 1 mg/kg, fructose-rich chow-fed rats): did not modify the value of glucose-insulin index directly
loperamide (10 μM)-induced 2-DG uptake in the presence of antagonist (C2C12 myoblasts; naloxone 0.1 μM, 8 experiments): 183.2±4.1 pmol/mg protein/5 min
loperamide (10 μM)-induced 2-DG uptake in the presence of antagonist (C2C12 myoblasts; naloxone 1 μM, 8 experiments): 169.9±5.0 pmol/mg protein/5 min

C=CCN1CC[C@]23c4c5ccc(O)c4O[C@H]2/C(=N/N=C2\CC[C@@]4(O)[C@H]6Cc7ccc(O)c8c7[C@@]4(CCN6CC=C)[C@H]2O8)CC[C@@]3(O)[C@H]1C5 [naloxonazine]
effect of antagonist on action of loperamide (10 μM) [1, 5]: inhibited the effect of loperamide in a dose-dependent manner
effect of antagonist on action of loperamide (10 μM) ([1]; antagonist at 1 μM): eliminated the action of loperamide
glucose uptake stimulated by insulin in TNF-α treated C2C12 myoblasts, antagonist alone ([1]; antagonist at 1 μM): did not modify the glucose uptake
